One may read the MIC as the lowest concentration that inhibits growth of the organism.

Experimental findings from PMC10499915 (Scientific Reports, 2023) are described below.

In brackets after ≈: the same amount, converted by molar mass. Entries after “also recorded” stand apart in the source; their conditions may differ. Read-outs that look alike come from different tables or passages of the source. Square brackets hold non-standard residues; d marks the D form. Peptide text beside a SMILES is read from it. * marks the point of attachment. Lauroyl = CCCCCCCCCCCC(=O)*; Octanoyl = CCCCCCCC(=O)*; Aun = NCCCCCCCCCCC(=O)O

The nature of data set [1]: Hydrophobicity by RP-HPLC retention time. The data set is classed as physicochemical. As to conditions: for Retention time tR: used as measure of hydrophobicity, RP-HPLC, Phenomenex Luna C18 (100 Å, 5µ), linear gradient 5%B to 95%B over 30 min, A 0.1% TFA in 9:1 water:acetonitrile, B 0.1% TFA in 9:1 acetonitrile:water, 1 mL/min, peptide 0.5 mg/mL in MeOH, UV 215 and 280 nm; for Hydrophobicity ΔtR: ΔtR = tR(x)−tR(a), relative to compound a, RP-HPLC C18, 5%–95%B over 30 min. As to the method:
Peptide hydrophobicity was calculated as difference in retention times between peptide analogues b–h and peptide a. Each peptide was dissolved in MeOH to a concentration of 0.5 mg/mL and then subjected to RP-HPLC on an analytical Phenomenex Luna C18 (100 Å, 5µ) column using 0.1% TFA in 9:1 water:acetonitrile as solvent A, and 0.1% TFA in 9:1 acetonitrile:water as solvent B. The peptides were eluted using a linear gradient as follows: 5%B to 95%B over 30 min. The flow rate was 1 mL/min and the absorbance was measured at 215 nm and 280 nm. The retention time was recorded for each peptide.

The next data set concerns E.coli ATCC 25922. The data set is classed as cell-based, Escherichia coli. Conditions: ATCC 25922, 18 h. The procedure: (§1) The bacterial strains used were Escherichia coli ATCC 25922, Staphylococcus aureus ATCC 25923, Klebsiella pneumoniae ATCC 700603, Acinetobacter baumannii ATCC 19606, Pseudomonas aeruginosa ATCC 27853 and Staphylococcus epidermidis ATCC 12228. The reference bacterial strains used were purchased from American Type Culture Collection (ATCC) (Manassas, Virginia, USA). They were grown overnight (o/n) at 37 °C in complete Müller-Hinton broth (MHB, Difco) medium with shaking (130 rpm). The day after, the overnight bacterial cultures were diluted in fresh MHB (300 μL o/n culture in 10 mL) and incubated at 37 °C with shaking (130 rpm) for approximately 2 h (mid-log phase) until reaching an optical density (OD) at 600 nm (OD600) ≈ 0.3.
(§2) Peptides diluted in MHB to a concentration of 128 μM were added to the first column of wells of a 96-well round-bottom microtiter plate (Sarstedt, Milan, Italy) and serially diluted (1:2) in a final volume of 50 μL MHB was added to the next wells. Then, a mid-log bacterial cultures (OD 600≈ 0.3) were diluted to 5 × 10^5 colony-forming units (CFU)/mL in MHB and 50 μL of this bacterial suspension was added to each well. In this way, the final bacterial concentration was reduced to 2.5 × 10^5 CFU/mL and the peptide concentration in the wells was also halved in a final volume of 100 μL (final bacteria load was 2.5 × 10^4 CFU/well). The same amount of untreated bacteria in MHB was used as a control for bacterial growth. […] MIC was determined by visual inspection at the end of incubation as the first clear well. Data are reported as moda of independent experiments repeated three times or four times in case of uncertain values.

The next data set deals with S.aureus ATCC 25923. The data set is classed as cell-based, Staphylococcus aureus. As to the method:
as §1, §2

The subject of another data set is A.baumanni ATCC 19606. The data set is classed as cell-based, Acinetobacter baumannii. As to conditions: ATCC 19606, 18 h. The procedure:
as §1, §2

Another data set concerns K.pneumoniae ATCC 700603. The data set is classed as cell-based, Klebsiella pneumoniae. As to conditions: ATCC 700603, 18 h. As to the method:
as §1, §2

A further data set concerns P.aeruginosa ATCC 27853. The data set is classed as cell-based, Pseudomonas aeruginosa. As to conditions: ATCC 27853, 18 h. As to the method:
as §1, §2

The next data set concerns S.epidermidis ATCC 12228. The data set is classed as cell-based, Staphylococcus epidermidis. As to conditions: ATCC 12228, 18 h. The procedure: as §1, §2
In data set [2] the test system is ram red blood cells (RBCs). As to conditions: 4% v/v ram RBCs in PBS, 1 h, 37 °C, absorbance 540 nm, 100% = 1% Triton X-100; all concentrations tested; n = 3. The procedure:
The lytic potential towards eukaryotic cell membranes was assessed by measuring the release of haemoglobin from commercial ram red blood cells (RBCs) (Microbiol s.r.l., Cagliari, Italy) after exposure to the peptides. First, erythrocytes were isolated by centrifugation, washed with PBS and then suspended at 8% (v/v) in PBS. Secondly, 100 µL erythrocytes suspension was added into each well of a 96-well microplate. Then, 100 µL peptide solution was added to each well at different concentrations (the final concentration of erythrocytes suspension was 4% v/v), and the plates were incubated for 1 h at 37 °C and centrifuged at 1000 g for 10 min. Finally, 100 µL aliquots of supernatant were transferred to fresh 96-well microplate, and the release of haemoglobin was monitored by measuring the absorbance at 540 nm with Tecan microplate reader (Tecan Trading AG, Switzerland). 0% and 100% haemolysis were determined in PBS and 1% Triton X-100, respectively.

The next data set relates to HaCaT cell line. Conditions: 24 h.
The conditions of data set [3]: 4h and 24 h incubation, different concentrations.
The test system of another data set is chymotrypsin. Nature of the data set: chymotrypsin (Sigma–Aldrich), 1.25 µg of enzyme in 150 µl buffer; Tris·HCl 50 mM, pH 7.8. Conditions: 37 °C, up to 24 h.
Data set [4] deals with E. coli, A. baumannii, K. pneumoniae, P. aeruginosa, and S. epidermidis strains. The data set is classed as cell-based. As to conditions: 18 h. As to the method: as §1, §2

Description for HaCaT cell line: Cytotoxicity was measured by the MTT assay on human immortalized epidermal keratinocyte HaCaT cell line (DKFZ, Eppelheim, Germany). The HaCaT cells were grown in high-glucose Dulbecco’s modified Eagle’s medium (DMEM) (Sigma-Aldrich, Milan, Italy). DMEM medium was supplemented with 10% foetal bovine serum (FBS; Sigma, Milan, Italy), 2 mM glutamine (Sigma, Milan, Italy), 100 U/mL penicillin (Sigma, Milan, Italy) and 100 µg/mL streptomycin (Sigma, Milan, Italy). The cells were maintained at 37 °C in the presence of 5% CO2 and in a humidified incubator.
Cells were counted in a Burker-Türk chamber to prepare a suspension of 2 × 10^5 cells/ml in DMEM High Glucose Complete Medium (Sigma-Aldrich, Milan, Italy). 100 μL of this suspension was added to the wells of a 96-well flat-bottom transparent microtiter plate (Euroclone, Milan, Italy) specially treated for tissue culture. The plate was incubated for 24 h at 37 °C and 5% CO2 to allow the cells in each well to reach a semiconfluent state. The following day, serial dilutions (1:2) of the peptides, starting with 64 μM, were prepared in DMEM medium, and 100 μL of these solutions were used to replace the medium in the plate with HaCaT cells. The same amount of untreated DMEM high-glucose medium was used as a cell growth control. DMEM high-glucose complete medium (100 μL) was used as a negative control to check the sterility of the medium. The plate was sealed with Parafilm to minimize evaporation and incubated at 37 °C and 5% CO2 for 20 h. Then, 25 μL MTT (Sigma-Aldrich, Milan, Italy) dissolved in phosphate-buffered saline (PBS) was added to each well to a final concentration of 1 mg/mL MTT, and the plate was incubated for 4 h in the dark at 37 °C and 5% CO2.
At the end of incubation, 100 μL 10% (w/v) Igepal (Sigma-Aldrich, Milan, Italy) in 10 mM HCl was added to each well, and the plate was incubated overnight in the dark at 37 °C and 5% CO2. The absorbance of MTT at 570 nm was measured using a Nanoquant Infinite-M200Pro plate reader (Tecan, Männedorf, Switzerland). Student’s t-test was performed for all samples.

Turning to `CCCCCCCC(=O)N[C@@H](CCCCN)C(=O)N[C@@H](CCCNC(=N)N)C(=O)N[C@@H](CC(C)C)C(=O)N[C@@H](CCCCN)C(=O)N[C@@H](CCCCN)C(=O)N[C@H](C(=O)NCC(=O)N[C@@H](CCCCN)C(=O)N[C@H](C(=O)N[C@@H](CC(C)C)C(=O)N[C@@H](CCCCN)C(=O)N[C@@H](Cc1c[nH]c2ccccc12)C(=O)N[C@H](C(=O)N[C@@H](C)C(=O)N[C@@H](CCCCN)C(=O)N[C@H](C(=O)N[C@H](C(=O)NCC(=O)N[C@@H](CO)C(=O)N[C@H](C(N)=O)[C@@H](C)CC)C(C)C)[C@@H](C)CC)[C@@H](C)CC)C(C)C)[C@@H](C)CC` [c] (Octanoyl-KRLKKIGKVLKWIAKIVGSI-NH2), the “Retention time tR” value in data set [1] amounted to 22.3 min. Also, the “Hydrophobicity ΔtR” value in data set [1] was determined as 9.1. Also, the MIC with E.coli ATCC 25922 is 16 µM (≈ 38.5 µg/mL); against S.aureus ATCC 25923 (ATCC 25923, 18 h) it was 16 µM (≈ 38.5 µg/mL); against A.baumanni ATCC 19606 it was 8 µM (≈ 19.2 µg/mL); in the data set on K.pneumoniae ATCC 700603, 16 µM (≈ 38.5 µg/mL); against P.aeruginosa ATCC 27853, 32 µM (≈ 76.9 µg/mL); in the data set with S.epidermidis ATCC 12228, 8 µM (≈ 19.2 µg/mL). Moreover, in data set [2], the “membranolytic (haemolytic) effect on erythrocytes” value (“membranolytic (haemolytic) effect” for short) was “significant lytic effect”. In the data set on HaCaT cell line, the “HC50 (cytotoxicity on HaCaT cells)” value was less than 32 µM. The “solubility in Müller-Hinton broth” value in data set [3] is “low solubility”.

Take `CCCCCCCCCCCC(=O)N[C@@H](CCCCN)C(=O)N[C@@H](CCCNC(=N)N)C(=O)N[C@@H](CC(C)C)C(=O)N[C@@H](CCCCN)C(=O)N[C@@H](CCCCN)C(=O)N[C@H](C(=O)NCC(=O)N[C@@H](CCCCN)C(=O)N[C@H](C(=O)N[C@@H](CC(C)C)C(=O)N[C@@H](CCCCN)C(=O)N[C@@H](Cc1c[nH]c2ccccc12)C(=O)N[C@H](C(=O)N[C@@H](C)C(=O)N[C@@H](CCCCN)C(=O)N[C@H](C(=O)N[C@H](C(=O)NCC(=O)N[C@@H](CO)C(=O)N[C@H](C(N)=O)[C@@H](C)CC)C(C)C)[C@@H](C)CC)[C@@H](C)CC)C(C)C)[C@@H](C)CC` [d] (Lauroyl-KRLKKIGKVLKWIAKIVGSI-NH2): the “Retention time tR” value in [1] is reported as 22.8 min. Also, the “Hydrophobicity ΔtR” value in data set [1] amounted to 9.6. Also, the MIC was more than 32 µM in the data set with E.coli ATCC 25922; 32 µM (≈ 78.7 µg/mL) against S.aureus ATCC 25923 (ATCC 25923, 18 h); 16 µM (≈ 39.4 µg/mL) with A.baumanni ATCC 19606; 32 µM (≈ 78.7 µg/mL) against K.pneumoniae ATCC 700603; more than 32 µM against P.aeruginosa ATCC 27853; 32 µM (≈ 78.7 µg/mL) against S.epidermidis ATCC 12228. The “membranolytic (haemolytic) effect” value in data set [2] is reported as “significant lytic effect”. The “HC50 (cytotoxicity on HaCaT cells)” value with HaCaT cell line was less than 32 µM. In addition, the “solubility in Müller-Hinton broth” value in [3] was “low solubility”.

On to `CC[C@H](C)[C@H](NC(=O)[C@H](CO)NC(=O)CNC(=O)[C@@H](NC(=O)[C@@H](NC(=O)[C@H](CCCCN)NC(=O)[C@H](C)NC(=O)[C@@H](NC(=O)[C@H](Cc1c[nH]c2ccccc12)NC(=O)[C@H](CCCCN)NC(=O)[C@H](CC(C)C)NC(=O)[C@@H](NC(=O)[C@H](CCCCN)NC(=O)CNC(=O)[C@@H](NC(=O)[C@H](CCCCN)NC(=O)[C@H](CCCCN)NC(=O)[C@H](CC(C)C)NC(=O)[C@H](CCCNC(=N)N)NC(=O)[C@H](CCCCN)NC(C)=O)[C@@H](C)CC)C(C)C)[C@@H](C)CC)[C@@H](C)CC)C(C)C)C(=O)NCCCCCCCCCCC(N)=O` [f] (Ac-KRLKKIGKVLKWIAKIVGSI[Aun]-NH2), for which the MIC in the data set on E.coli ATCC 25922 turned out to be 8 µM (≈ 20 µg/mL); in the data set on S.aureus ATCC 25923 (ATCC 25923, 18 h) it was 8 µM (≈ 20 µg/mL); in the data set with A.baumanni ATCC 19606 it was 4 µM (≈ 10 µg/mL); against K.pneumoniae ATCC 700603, 16 µM (≈ 40.1 µg/mL); in the data set on P.aeruginosa ATCC 27853, 16 µM (≈ 40.1 µg/mL); in the data set on S.epidermidis ATCC 12228, 8 µM (≈ 20 µg/mL). Moreover, in data set [2], the “membranolytic (haemolytic) effect” value is on record as “significant lytic effect”. In the data set on HaCaT cell line, the “HC50 (cytotoxicity on HaCaT cells)” value is less than 32 µM.

On to Ac-KRLKKIGKVLKWI-NH2, for which, in the data set with chymotrypsin, the cleaved bond result was “Leu21-Lys22, first_seen, within a 30-min incubation”.

Consider Ac-KRLKKIGKVLKWIAKIVGSI-NH2, for which the cleaved bond result with chymotrypsin is “Leu21-Lys22, first_seen, within a 30-min incubation; also recorded: Leu14-Lys15, after longer incubation times; also recorded: Trp23-Ile24, after longer incubation times”.

As for “Ac-KRLKKIGKVLKWIAKIVGSI[Aun]-NH2 (SMILES CC[C@H](C)[C@H](NC(=O)[C@H](CO)NC(=O)CNC(=O)[C@@H](NC(=O)[C@@H](NC(=O)[C@H](CCCCN)NC(=O)[C@H](C)NC(=O)[C@@H](NC(=O)[C@H](Cc1c[nH]c2ccccc12)NC(=O)[C@H](CCCCN)NC(=O)[C@H](CC(C)C)NC(=O)[C@@H](NC(=O)[C@H](CCCCN)NC(=O)CNC(=O)[C@@H](NC(=O)[C@H](CCCCN)NC(=O)[C@H](CCCCN)NC(=O)[C@H](CC(C)C)NC(=O)[C@H](CCCNC(=N)N)NC(=O)[C@H](CCCCN)NC(C)=O)[C@@H](C)CC)C(C)C)[C@@H](C)CC)[C@@H](C)CC)C(C)C)C(=O)NCCCCCCCCCCC(N)=O)”, the cleaved bond entry with chymotrypsin was “Leu21-Lys22, first_seen, within a 30-min incubation; also recorded: Trp23-Ile24, first_seen, within a 30-min incubation; also recorded: Leu14-Lys15, after longer incubation times”.

For the compound Ac-KRLKKIGKVLKWIPPIVGSI-NH2, the cleaved bond entry with chymotrypsin is reported as “Leu21-Lys22, first_seen, within a 30-min incubation”.

On to Ac-KRLKKIGKVLKWIPPIVGSI-NH2 [a], for which the “Retention time tR” value in data set [1] is 13.2 min. Further, the “Hydrophobicity ΔtR” value in data set [1] was 0. Further, the MIC is 2 µM against E.coli ATCC 25922; 64 µM against S.aureus ATCC 25923 (S.aureus ATCC 25923, Mueller–Hinton broth, 18 h, 37 °C, 2.5 × 10^5 CFU/mL, visual, mode of three independent tests); 1 µM in the data set on A.baumanni ATCC 19606; 1 µM against K.pneumoniae ATCC 700603; 4 µM in the data set with P.aeruginosa ATCC 27853; 2 µM against S.epidermidis ATCC 12228. Further, in data set [4], the “MIC, span over all tested bacterial strains except S. aureus” value fell in the range of 1 to 4 µM.

As for Ac-KRLKKIGKVUKWI-NH2, the cleaved bond result in the data set on chymotrypsin is reported as “Leu14-Lys15, within a 30-min incubation; also recorded: Trp23-Ile24, after longer incubation times”.

Regarding Lau-KRLKKIGKVLKWIAKIVGSI-NH2, the cleaved bond result in the data set on chymotrypsin is recorded as “Trp23-Ile24, after longer incubation times; also recorded: Leu21-Lys22, first_seen, within a 30-min incubation; also recorded: Leu14-Lys15, after longer incubation times”.

Take Oct-KRLKKIGKVLKWIAKIVGSI-NH2: the cleaved bond result with chymotrypsin is “Leu21-Lys22, first_seen, within a 30-min incubation; also recorded: Trp23-Ile24, first_seen, within a 30-min incubation; also recorded: Leu14-Lys15, within a 30-min incubation”.

With Pal-KRLKKIGKVLKWIAKIVGSI-NH2, the cleaved bond result in the data set with chymotrypsin is listed as “Leu14-Lys15, after longer incubation times; also recorded: Leu21-Lys22, after longer incubation times; also recorded: Trp23-Ile24, after longer incubation times”.
